Laboratory results: ChEMBL document CHEMBL1201862, “PubChem BioAssay data set” (2004)
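Results reflect a 48-hour exposure of cells in 96-well plates to compound at five concentrations. GI50 = concentration required for 50% inhibition of growth.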 Activity calls are given as the source filed them. Cut-off read from the data, not from the text of the source: active = GI50 up to about 1.1 µM and inactive = higher.

Legend:
Experiment in all cases: DTP human tumour cell line panel, 48 h
[1] = system: NCI-H23
[2] = system: RPMI-8226
[3] = system: RXF 393
[4] = system: KM12
[5] = system: HCC 2998
[6] = system: SN12C
[7] = system: HOP-92
[8] = system: MDA-MB-435
[9] = system: SK-OV-3
[10] = system: SR
[11] = system: OVCAR-4
[12] = system: NCI-H226
[13] = system: ACHN
[14] = system: HL-60
[15] = system: OVCAR-5
[16] = system: HCT-116
[17] = system: A498
[18] = system: UO-31
[19] = system: NCI/ADR-RES
[20] = system: Malme-3M

Row | Compound | GI50 [1] | GI50 [2] | GI50 [3] | GI50 [4] | GI50 [5] | GI50 [6] | GI50 [7] | GI50 [8] | GI50 [9] | GI50 [10] | GI50 [11] | GI50 [12] | GI50 [13] | GI50 [14] | GI50 [15] | GI50 [16] | GI50 [17] | GI50 [18] | GI50 [19] | GI50 [20]
1 | CCCCCCCCCCCCCCCC[N+](C)(C)Cc1ccc(F)cc1 | 2.16 µM (inactive) | 1.06 µM (active) | 1.11 µM (active) | 1.26 µM (inactive) | 1.47 µM (inactive) | 1.62 µM (inactive) | 1.27 µM (inactive) | 1.84 µM (inactive) | 2.2 µM (inactive) | 1.54 µM (inactive) | 1.55 µM (inactive) | 2.15 µM (inactive) | 3.07 µM (inactive) | 0.184 µM (active) | 1.83 µM (inactive) | 1.48 µM (inactive) | 26.2 µM (inactive) | 6.84 µM (inactive) | 18.1 µM (inactive) | 
2 | Brc1ccc2c3c1[C@@H]1O[C@@H]1c1cccc(c1-3)[C@@H]1O[C@H]21 | 16.3 µM (inactive) | 13.1 µM (inactive) | 17.1 µM (inactive) | 16.9 µM (inactive) |  | 17.3 µM (inactive) | 20.9 µM (inactive) | 15 µM (inactive) | 27.5 µM (inactive) | > 100 µM (inactive) | 17.9 µM (inactive) | 39.7 µM (inactive) | 22.1 µM (inactive) | 19.6 µM (inactive) | 17.6 µM (inactive) | 13.8 µM (inactive) | 26.9 µM (inactive) | 15.4 µM (inactive) | 17.4 µM (inactive) | 18.6 µM (inactive)
3 | COc1cccc(CCn2c(N)c(-c3ccccc3)c3ccc([N+](=O)[O-])cc3c2=O)c1 | 3.16 µM (inactive) | 0.499 µM (active) |  | 4.36 µM (inactive) | 11.1 µM (inactive) | 0.664 µM (active) | 10.3 µM (inactive) | 21.9 µM (inactive) | 5.07 µM (inactive) | 6.61 µM (inactive) | 1.79 µM (inactive) | 3.05 µM (inactive) | 5.25 µM (inactive) | 5.47 µM (inactive) | 14.3 µM (inactive) | 3.3 µM (inactive) | 1.82 µM (inactive) | 9.02 µM (inactive) | 1.9 µM (inactive) | 14.2 µM (inactive)
4 | N#Cc1ccc(OCc2nc3cc(C(F)(F)F)ccc3nc2-c2ccccc2)cc1 | > 100 µM (inactive) | > 100 µM (inactive) |  | > 100 µM (inactive) | > 100 µM (inactive) | > 100 µM (inactive) | > 100 µM (inactive) | > 100 µM (inactive) |  | 70.5 µM (inactive) | > 100 µM (inactive) |  | > 100 µM (inactive) | 3.53 µM (inactive) | > 100 µM (inactive) | > 100 µM (inactive) | > 100 µM (inactive) | > 100 µM (inactive) | > 100 µM (inactive) | > 100 µM (inactive)
5 | O=S(=O)(NNc1ccccc1)c1ccccc1 | 25.5 µM (inactive) | 3.71 µM (inactive) | 7.73 µM (inactive) | 1.66 µM (inactive) | 0.902 µM (active) | 4.49 µM (inactive) | 19.1 µM (inactive) | 4.81 µM (inactive) | 65.3 µM (inactive) | 11.2 µM (inactive) | 2.62 µM (inactive) | 4.12 µM (inactive) | 0.662 µM (active) | 1.66 µM (inactive) | 17.1 µM (inactive) | 13.2 µM (inactive) | 81.5 µM (inactive) | 10.6 µM (inactive) | 10 µM (inactive) | 
6 | CC(C)(C)OC(=O)NC1CCCC1C(O)(C1=CCCC1)C1=CCCC1 (stereo unspecified) | > 100 µM (inactive) | > 100 µM (inactive) | > 100 µM (inactive) | > 100 µM (inactive) | > 100 µM (inactive) | > 100 µM (inactive) | > 100 µM (inactive) | > 100 µM (inactive) | > 100 µM (inactive) | > 100 µM (inactive) | 67.6 µM (inactive) | > 100 µM (inactive) | > 100 µM (inactive) | > 100 µM (inactive) | > 100 µM (inactive) | > 100 µM (inactive) | > 100 µM (inactive) |  | > 100 µM (inactive) | 
